pEC50: −log10 of the molar value.
How the values were obtained:
[1] = tested on: Human immunodeficiency virus 1; assay: Antiviral activity against HIV1 IIIB infected in human C8166 cells assessed as inhibition of syncytia formation incubated for 3 to 7 days by syncytia assays; assay type: functional, organism-based; conditions: Human immunodeficiency virus 1, IIIB
[2] = tested on: Human immunodeficiency virus 1; assay: Antiviral activity against HIV1 WAN infected in human PBMC assessed as inhibition of viral replication by measuring reduction in p24 antigen level incubated for 3 to 7 days by ELISA analysis; assay type: functional, organism-based; conditions: Human immunodeficiency virus 1, WAN
[3] = tested on: Human immunodeficiency virus 1; assay: Antiviral activity against HIV1 KIZ001 infected in human PBMC assessed as inhibition of viral replication by measuring reduction in p24 antigen level incubated for 3 to 7 days by ELISA analysis; assay type: functional, organism-based; conditions: Human immunodeficiency virus 1, KIZ001, PBMC
[4] = tested on: Human immunodeficiency virus 1; assay: Antiviral activity against HIV1 TC-1 infected in human PBMC assessed as inhibition of viral replication by measuring reduction in p24 antigen level incubated for 3 to 7 days by ELISA analysis; assay type: functional, organism-based; conditions: Human immunodeficiency virus 1, TC-1, PBMC
[5] = tested on: Human immunodeficiency virus 1; assay: Antiviral activity against HIV1 VSV-G pseudotyped virus infected in human HEK293T cells assessed as inhibition of viral growth preincubated for 3 hrs followed by washout and further incubated with compound for 72 hrs by luciferase assay; assay type: functional, organism-based; conditions: Human immunodeficiency virus 1, HEK-293T
[6] = tested on: Human immunodeficiency virus 1; assay: Antiviral activity against HIV1 4755-5 infected in human C8166 cells assessed as inhibition of viral replication by measuring reduction in p24 antigen level incubated for 3 to 7 days by ELISA analysis; assay type: functional, organism-based; conditions: Human immunodeficiency virus 1, 4755-5, C8166
[7] = Cytotoxicity against HEK293T cells assessed as reduction in cell viability by MTT assay; assay type: toxicity, cell-based, HEK-293T; conditions: human
[8] = Selectivity index, ratio of CC50 for cytotoxicity against HEK293T cells assessed as reduction in cell viability by MTT assay to EC50 for antiviral activity against HIV1 VSV-G pseudotyped virus infected in human HEK293T cells assessed as inhibition of viral growth; assay type: toxicity, cell-based; conditions: read-out: Ratio CC50/EC50
[9] = tested on: Human immunodeficiency virus 1; assay: Antiviral activity against HIV-1 harboring integrase G140S/Q148H double mutant infected in human TZM-bl cells assessed as inhibition of viral replication incubated for 3 to 7 days by luciferase assay; assay type: functional, organism-based; conditions: Human immunodeficiency virus 1, TZM-bl
[10] = tested on: Human immunodeficiency virus 1; assay: Antiviral activity against HIV1 IIIB infected in human MT4 cells assessed as inhibition of viral replication incubated for 3 to 7 days by MTT analysis; assay type: functional, organism-based; conditions: Human immunodeficiency virus 1, IIIB
[11] = tested on: Human immunodeficiency virus 1; assay: Antiviral activity against HIV1 IIIB infected in human C8166 cells assessed as inhibition of viral replication by measuring reduction in p24 antigen level incubated for 3 to 7 days by ELISA analysis; assay type: functional, organism-based; conditions: Human immunodeficiency virus 1, IIIB

For `Nc1ccn([C@@H]2CS[C@H](CO)O2)c(=O)n1` [LAMIVUDINE], the pEC50 [1] was 6.70, the pEC50 [2] was 6.27 and the pEC50 [3] was 7.14. The pEC50 [4] was 6.68, the pEC50 [5] was 6.77 and the pEC50 [6] was < 3.70. The CC50 [7] was > 100 µM, the selectivity ratio [8] was > 588 and the pEC50 [9] was 6.86. It also gave a pEC50 [10] of 6.78 and a pEC50 [11] of 6.07.

From ChEMBL document CHEMBL5360641, “4'-Ethynyl-2'-deoxy-2'-β-fluoro-2-fluoroadenosine: A Highly Potent and Orally Available Clinical Candidate for the Treatment of HIV-1 Infection” (J Med Chem, 2023)
